In ChEMBL document CHEMBL1201862, “PubChem BioAssay data set” (2004):
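Five compound concentrations were applied to cells in 96-well plates for 48 hours; endpoints were derived by simple linear interpolation of the resulting dose-response curve. At the GI50, growth is halved.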 Calls of active or inactive are those of the source. No stated cut-off is given here; in the data, active = GI50 up to about 1.1 µM and inactive = higher.

Key:
Assay in all cases: NCI anticancer screen, dose series, 48 h
NCI-H226 = system: NCI-H226
SW-620 = system: SW-620
HOP-62 = system: HOP-62
NCI-H460 = system: NCI-H460
RPMI-8226 = system: RPMI-8226
MCF7 = system: MCF7
UACC-257 = system: UACC-257
BT-549 = system: BT-549
SK-OV-3 = system: SK-OV-3
MDA-MB-435 = system: MDA-MB-435
KM12 = system: KM12
Hs-578T = system: Hs-578T
NCI-H522 = system: NCI-H522
786-0 = system: 786-0
OVCAR-3 = system: OVCAR-3
T47D = system: T47D
ACHN = system: ACHN
NCI-H23 = system: NCI-H23
OVCAR-5 = system: OVCAR-5
SNB-19 = system: SNB-19
HL-60 = system: HL-60
SF-268 = system: SF-268
EKVX = system: EKVX
HCT-15 = system: HCT-15
SF-295 = system: SF-295
A549 = system: A549
SR = system: SR
SK-MEL-2 = system: SK-MEL-2
HCT-116 = system: HCT-116
CCRF-CEM = system: CCRF-CEM
U-251 = system: U-251
UACC-62 = system: UACC-62
HCC 2998 = system: HCC 2998
DU-145 = system: DU-145
MDA-N = system: MDA-N
IGROV-1 = system: IGROV-1
SF-539 = system: SF-539
HT-29 = system: HT-29
RXF 393 = system: RXF 393
SK-MEL-5 = system: SK-MEL-5
COLO 205 = system: COLO 205
SNB-75 = system: SNB-75
PC-3 = system: PC-3
HOP-92 = system: HOP-92
MOLT-4 = system: MOLT-4
SN12C = system: SN12C
OVCAR-8 = system: OVCAR-8
CAKI-1 = system: CAKI-1
TK-10 = system: TK-10
OVCAR-4 = system: OVCAR-4
NCI/ADR-RES = system: NCI/ADR-RES
SK-MEL-28 = system: SK-MEL-28
LOX IMVI = system: LOX IMVI
Malme-3M = system: Malme-3M
MDA-MB-231 = system: MDA-MB-231
UO-31 = system: UO-31
K562 = system: K562
A498 = system: A498
M14 = system: M14

Measured: GI50

CC(C)=CCN1c2ccccc2[C@@]2(CC=C(C)C)CCN(C)[C@@H]12 [(+)-DEBROMOFLUSTRAMINE B]
25.6 µM: HCT-15
inactive: NCI-H226 44.2 µM | SW-620 26.7 µM | HOP-62 19.2 µM | NCI-H460 14.8 µM | RPMI-8226 21.6 µM | MCF7 17.3 µM | UACC-257 > 10 µM | BT-549 21.9 µM | SK-OV-3 24.4 µM | MDA-MB-435 21.1 µM | KM12 24.5 µM | Hs-578T 22 µM | NCI-H522 18.6 µM | 786-0 19.2 µM | OVCAR-3 18.1 µM | T47D 20.7 µM | ACHN 32.5 µM | NCI-H23 40.5 µM | OVCAR-5 > 100 µM | SNB-19 22.3 µM | HL-60 16.1 µM | SF-268 46.3 µM | EKVX 21.2 µM | SF-295 21 µM | A549 36.1 µM | SR 33.4 µM | SK-MEL-2 14 µM | HCT-116 23.6 µM | CCRF-CEM 34.2 µM | U-251 18.2 µM | UACC-62 15.7 µM | HCC 2998 13.7 µM | DU-145 45.2 µM | MDA-N 26.5 µM | IGROV-1 21.6 µM | SF-539 24.3 µM | HT-29 19.5 µM | RXF 393 28.5 µM | SK-MEL-5 17.6 µM | COLO 205 13.9 µM | SNB-75 26.1 µM | PC-3 27 µM | HOP-92 32.7 µM | MOLT-4 25.6 µM | SN12C 27.4 µM | OVCAR-8 28.2 µM | CAKI-1 26.8 µM | TK-10 35.9 µM | OVCAR-4 35.6 µM | NCI/ADR-RES 18.3 µM | SK-MEL-28 35.5 µM | LOX IMVI 15.1 µM | Malme-3M 17.7 µM | MDA-MB-231 21.4 µM | UO-31 14.8 µM | K562 19.6 µM

CCN(CC)C1=Nc2ccccc2-n2ccnc2C1
inactive: NCI-H226 > 100 µM | SW-620 > 100 µM | HOP-62 > 100 µM | NCI-H460 95.1 µM | MCF7 > 100 µM | UACC-257 > 100 µM | BT-549 > 100 µM | MDA-MB-435 > 100 µM | KM12 > 100 µM | Hs-578T > 100 µM | NCI-H522 > 100 µM | 786-0 > 100 µM | OVCAR-3 > 100 µM | T47D > 100 µM | ACHN > 100 µM | NCI-H23 > 100 µM | OVCAR-5 > 100 µM | SNB-19 > 100 µM | HL-60 78.2 µM | SF-268 > 100 µM | EKVX > 100 µM | SF-295 > 100 µM | A549 > 100 µM | SR > 100 µM | SK-MEL-2 > 100 µM | HCT-116 > 100 µM | A498 > 100 µM | CCRF-CEM > 100 µM | U-251 > 100 µM | M14 > 100 µM | UACC-62 > 100 µM | HCC 2998 > 100 µM | DU-145 > 100 µM | MDA-N > 100 µM | IGROV-1 > 100 µM | SF-539 > 100 µM | HT-29 > 100 µM | RXF 393 > 100 µM | SK-MEL-5 > 100 µM | COLO 205 > 100 µM | SNB-75 70.5 µM | PC-3 > 100 µM | HOP-92 > 100 µM | MOLT-4 > 100 µM | SN12C > 100 µM | OVCAR-8 > 100 µM | CAKI-1 > 100 µM | TK-10 > 100 µM | OVCAR-4 > 100 µM | NCI/ADR-RES > 100 µM | SK-MEL-28 > 100 µM | LOX IMVI > 100 µM | MDA-MB-231 > 100 µM | UO-31 > 100 µM | K562 > 100 µM
> 100 µM: HCT-15
